Results as given in the NIST ThermoML archive (doi:10.1021/je900716q).
± gives the expanded uncertainty stated by the source.

Key:
[1] = 101.33 kPa, Liquid, Pycnometric method
[2] = xn = mol fraction of the nth substance listed; conditions: Liquid, measurement of pressure, x2 = 0

SMILES | mass density ([1]; 300.71 K) [kg/m3] | mass density ([1]; 303.35 K) [kg/m3] | mass density ([1]; 304.95 K) [kg/m3] | mass density ([1]; 307.31 K) [kg/m3] | mass density ([1]; 310.81 K) [kg/m3] | mass density ([1]; 314.35 K) [kg/m3] | binary diffusion coefficient ([2]; 303.15 K) [m2/s] | binary diffusion coefficient ([2]; 313.15 K) [m2/s] | binary diffusion coefficient ([2]; 323.15 K) [m2/s] | binary diffusion coefficient ([2]; 333.15 K) [m2/s] | binary diffusion coefficient ([2]; 343.15 K) [m2/s] | binary diffusion coefficient ([2]; 353.15 K) [m2/s]
C[n+]1ccn(CCO)c1.F[B-](F)(F)F [1-(2-hydroxyethyl)-3-methylimidazolium tetrafluoroborate] | 1384 ± 1 | 1380 ± 1 | 1379 ± 1 | 1376 ± 1 | 1373 ± 1 | 1369 ± 1 |  |  |  |  |  | 
C[n+]1ccn(CCO)c1.F[B-](F)(F)F [1-(2-hydroxyethyl)-3-methylimidazolium tetrafluoroborate] + O=C=O |  |  |  |  |  |  | 1.4e-08 | 2.09e-08 | 3.94e-08 | 4.65e-08 | 5.71e-08 | 7.16e-08
C[n+]1ccn(CCO)c1.F[B-](F)(F)F [1-(2-hydroxyethyl)-3-methylimidazolium tetrafluoroborate] + S |  |  |  |  |  |  | 1.79e-08 | 2.15e-08 | 2.76e-08 | 3.24e-08 | 3.8e-08 | 4.41e-08
